In PubChem BioAssay (NCI) one finds GI50 and TGI data, which are given here for 15 molecules.

As a reminder, the GI50 is the concentration at which growth is held to half of that of the control. As a reminder, the TGI is the concentration giving total growth inhibition. Higher therefore signals less potent growth arrest.

Some test systems named below: NCI-H522 lung; LOX IMVI melanoma; CAKI-1 renal; M14 melanoma; SF-268 CNS; NCI-H460 lung; MDA-MB-435; HOP-62 NSCLC; NCI/ADR-RES ovarian.
What all share (test): DTP human tumour cell line panel, 48 h

Values joined by “and” are separate entries in the source; they are usually repeats but may differ in a detail not shown here. Identical values can stand only once.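 All cell lines were grown in 96-well plates and treated with compound for 48 hours. GI50 is the concentration that inhibits growth by half. TGI is the concentration that stops growth completely.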

As to `Cc1ccc(NC2=C(Cl)C(=O)N(Cc3ccccc3)C2=O)cc1Cl`, the GI50 was 2.97 µM in the assay on NCI-H522 lung; 2.53 µM in the assay on LOX IMVI melanoma; 5.92 µM in the assay with CAKI-1 renal; 11 µM in the assay on M14 melanoma; 3.28 µM with SF-268 CNS; 6.78 µM with NCI-H460 lung. Also, the figures for the GI50 in the assay on MDA-MB-435, in the assay with HOP-62 NSCLC and in the assay on NCI/ADR-RES ovarian were 5.29 µM, 12.6 µM and 6.11 µM, respectively. Also, the TGI with NCI-H522 lung amounted to 15.4 µM; with LOX IMVI melanoma it was 14.2 µM; with CAKI-1 renal it was 26 µM; with M14 melanoma, 22.9 µM; with SF-268 CNS, 15.1 µM; in the assay on NCI-H460 lung, 23.6 µM. The TGI in the assay on MDA-MB-435 worked out at 25.7 µM; in the assay on HOP-62 NSCLC, 25.2 µM; in the assay on NCI/ADR-RES ovarian, 20.6 µM.
`Cc1ccc(C(=O)C#Cc2c[nH]c(=O)[nH]c2=O)cc1`: the TGI with LOX IMVI melanoma amounted to 15 µM; in the assay with CAKI-1 renal it was 30.5 µM; in the assay with M14 melanoma, 35 µM; with SF-268 CNS it was 26.2 µM; with NCI-H460 lung, 33.8 µM; in the assay on HOP-62 NSCLC it was 87.7 µM.
`COC(=O)C(Cc1ccccc1)NC(=O)Cn1ccnc1[N+](=O)[O-]` (centres undefined): the TGI with NCI-H522 lung, in the assay with LOX IMVI melanoma, with CAKI-1 renal, with M14 melanoma, in the assay with SF-268 CNS and in the assay with NCI-H460 lung was over 100 µM throughout. This molecule also had a TGI in the assay with HOP-62 NSCLC of over 100 µM.
On to `CCC[CH2][Sn]1([CH2]CCC)[O]CC(CN2CCOCC2)[O]1` (centres undefined), for which the GI50 with NCI-H522 lung is 1.12 µM; in the assay with LOX IMVI melanoma, 2.02 µM; in the assay with CAKI-1 renal it was 1.36 µM; in the assay on M14 melanoma, 2.86 µM; in the assay with SF-268 CNS it was 1.79 µM; with NCI-H460 lung, 13.6 µM. In the assay with HOP-62 NSCLC, the GI50 is 8.8 µM. In addition, the TGI in the assay on NCI-H522 lung is 2.55 µM; with LOX IMVI melanoma, 5.7 µM; in the assay on CAKI-1 renal, 6.51 µM; with M14 melanoma, 10.3 µM; in the assay on SF-268 CNS, 5.52 µM; in the assay on NCI-H460 lung, 26.5 µM. In the assay on HOP-62 NSCLC, this molecule returned a TGI of 20.4 µM.
`COC(=O)C1=C(CS(=O)c2ccc([N+](=O)[O-])cc2[N+](=O)[O-])ON(C)C1c1ccccc1` (centres undefined): the TGI with NCI-H522 lung is 32.1 µM; in the assay on LOX IMVI melanoma, 35 µM; with CAKI-1 renal, over 60.8 µM; with M14 melanoma, over 100 µM; with SF-268 CNS, over 100 µM; with NCI-H460 lung, over 100 µM. The same molecule registered a TGI in the assay on HOP-62 NSCLC of over 100 µM.
For the molecule `COc1ccccc1C(N)c1ccccc1` (centres undefined), the TGI in the assay on NCI-H522 lung, in the assay on LOX IMVI melanoma, in the assay on M14 melanoma, with SF-268 CNS, in the assay with NCI-H460 lung and in the assay on HOP-62 NSCLC was over 100 µM throughout.
With `COc1ccc(-c2cc(-c3cc(C)ccc3O)[nH]c(=O)n2)cc1`, the TGI in the assay on NCI-H522 lung is 94 µM; with LOX IMVI melanoma, over 100 µM; with CAKI-1 renal, over 100 µM; in the assay with M14 melanoma it was over 100 µM; in the assay on SF-268 CNS it was over 100 µM; in the assay on NCI-H460 lung, over 100 µM. The TGI in the assay on HOP-62 NSCLC came out at 76.4 µM.
For the molecule `COc1ccc(NC(=O)CC(=O)N2N=C(N(CCC#N)c3cccc(C)c3)CC2c2ccccc2)cc1` (centres undefined), the TGI in the assay on NCI-H522 lung, in the assay on CAKI-1 renal, with M14 melanoma, in the assay with SF-268 CNS, in the assay with NCI-H460 lung and in the assay with HOP-62 NSCLC was over 100 µM in each case.
In the case of `CCOC(=O)N[C@@H]1C2CC(=O)C(O2)[C@@H]1OC` (some centres undefined), the TGI with NCI-H522 lung, in the assay on LOX IMVI melanoma, in the assay with CAKI-1 renal, with M14 melanoma, in the assay on SF-268 CNS and in the assay with NCI-H460 lung was over 100 µM throughout. For the same molecule, the TGI with HOP-62 NSCLC is over 100 µM.
`O=C1CC[C@H](c2ccc(O)c3c2C(=O)[C@@H]2O[C@@H]2C3=O)c2cccc(O)c21`: the GI50 with NCI-H522 lung was 1.72 µM; in the assay with LOX IMVI melanoma it was 0.976 µM; in the assay on CAKI-1 renal, 1.41 µM; in the assay with M14 melanoma, 1.9 µM; in the assay on SF-268 CNS it was 2.32 µM; in the assay with NCI-H460 lung it was 3.74 µM. Also, the figures for the GI50 with MDA-MB-435, in the assay with HOP-62 NSCLC and in the assay with NCI/ADR-RES ovarian were 1.92 µM, 3.1 µM and 3.01 µM, respectively. The TGI with NCI-H522 lung is 3.33 µM; in the assay on LOX IMVI melanoma it was 3.86 µM; in the assay with CAKI-1 renal it was 9.33 µM; in the assay with M14 melanoma, 4.09 µM; in the assay with SF-268 CNS it was 6.17 µM; with NCI-H460 lung, 30.4 µM. In addition, the values for the TGI in the assay with MDA-MB-435, with HOP-62 NSCLC and with NCI/ADR-RES ovarian were 4.2 µM, 11.6 µM and 15.1 µM, respectively.
As for `COC1OC(COS(=O)(=O)c2ccc(C)cc2)C(O)C(OS(=O)(=O)c2ccc(C)cc2)C1OS(=O)(=O)c1ccc(C)cc1` (centres undefined), the TGI with NCI-H522 lung, with CAKI-1 renal, in the assay with M14 melanoma, with SF-268 CNS, in the assay with NCI-H460 lung and in the assay on HOP-62 NSCLC was over 100 µM each time.
On to `NCCCNCCSSC/C=C\CSSCCNCCCN`, for which the TGI in the assay with NCI-H522 lung was 42.5 µM and 24.7 µM; with LOX IMVI melanoma, over 100 µM; with CAKI-1 renal it was over 100 µM; in the assay with M14 melanoma it was over 100 µM; with SF-268 CNS, over 100 µM; in the assay on NCI-H460 lung, over 100 µM. For the same molecule, the TGI in the assay on HOP-62 NSCLC was > 100 µM and 93.4 µM. Also, in the assay with HOP-62 NSCLC, the GI50 was > 100 µM and 33.2 µM.
As for `NC(=O)CCC(NC(=O)Cc1ccccc1)C(=O)O` (centres undefined) (tested in a mixture with another compound), the TGI with NCI-H522 lung, in the assay with CAKI-1 renal, with M14 melanoma, with SF-268 CNS and with HOP-62 NSCLC was over 8130 µM each time.
As for `CC(=O)c1ccc(NC(=O)C(=O)C(C(=O)c2ccc(Cl)c(Cl)c2)C2OC(=O)c3ccccc32)cc1` (centres undefined), the TGI with NCI-H522 lung is 22.1 µM; in the assay with LOX IMVI melanoma, 32.6 µM; with CAKI-1 renal it was over 100 µM; in the assay with M14 melanoma, 41 µM; with SF-268 CNS it was 38.2 µM; in the assay on NCI-H460 lung it was 33.5 µM. For the same molecule, the TGI in the assay on HOP-62 NSCLC turned out to be 45.3 µM.
`COc1cc(Nc2nc3cc(C(F)(F)F)ccc3nc2-c2ccccc2)cc(OC)c1OC`: the TGI with NCI-H522 lung is 83.4 µM; with LOX IMVI melanoma, over 100 µM; with CAKI-1 renal it was 0.0575 µM; with M14 melanoma, over 100 µM; with SF-268 CNS, over 100 µM; in the assay with NCI-H460 lung, over 100 µM. The molecule further returned a TGI in the assay with HOP-62 NSCLC of 94.6 µM.
